Numbered stars: 1 amine (or outer) side, 2 acyl side, 3 side chain; on linkers, the order of the positions; unused ones are H or OH. Bridge positions count the residues as written; N and C are the ends. Square brackets hold non-standard residues; d marks the D form. Peptide text beside a SMILES is read from it. * marks the point of attachment. hPhe(3-Cl-4-CF3) = N[C@@H](CCc1ccc(C(F)(F)F)c(Cl)c1)C(=O)O; hPhe(3-F,4-CF3) = N[C@@H](CCc1ccc(C(F)(F)F)c(F)c1)C(=O)O; X19 = O=C([C@@H]1C[C@@H](N2CCC(F)(F)CC2)CN1[*:1])[*:2]; hPhe(4-CF3) = N[C@@H](CCc1ccc(C(F)(F)F)cc1)C(=O)O; NMePhe(4-Cl) = CN[C@@H](Cc1ccc(Cl)cc1)C(=O)O; hPhe(4-Cl) = N[C@@H](CCc1ccc(Cl)cc1)C(=O)O; NMedβ3hAla = C[C@H](CC(=O)[*:2])N(C)[*:1]; NMeGly(cPent) = CN[C@H](C(=O)O)C1CCCC1; NMeCha = CN[C@@H](CC1CCCCC1)C(=O)O; NMeI = CC[C@H](C)[C@H](NC)C(=O)O; NMeT = CN[C@H](C(=O)O)[C@@H](C)O; N(CH2CH2)2CF2 = FC1(F)CCN(*)CC1; NMeD = CN[C@@H](CC(=O)O)C(=O)O; NMeL = CN[C@@H](CC(C)C)C(=O)O; NEtAla = CCN[C@@H](C)C(=O)O; NMeV = CN[C@H](C(=O)O)C(C)C; NMeAbu = CC[C@H](NC)C(=O)O; NMeS = CN[C@@H](CO)C(=O)O; NMeA = CN[C@@H](C)C(=O)O; NMeAib = CNC(C)(C)C(=O)O; Piperidide = C1CCN(*)CC1; Ac5c = NC1(C(=O)O)CCCC1; Aze = O=C(O)[C@@H]1CCN1; Cyclobutyl = C1CC(*)C1; Alloc = C=CCOC(=O)*; Sar = CNCC(=O)O; Propyl = CCC*
Legend:
[1] = target: protein-protein interaction between Kras and SOS1 (biotin-tagged human Kras loaded with GDP, His-tagged human SOS1) (Homo sapiens (Human), UniProt P01116, G12D); assay: Protein-protein interaction inhibition between Kras and SOS1 (KrasG12D-SOS PPI) using AlphaScreen; assay type: biochemical; settings: AlphaScreen; biotin-tagged human Kras loaded with GDP, His-tagged human SOS1; read-out: KRAS G12D-SOS PPI IC50;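 also: kras produced in E. coli, Ni-coupled donor beads and streptavidin acceptor beads, excitation 680 nm with emission detected at 520–620 nm via singlet oxygen transfer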
[2] = system: Human pancreatic cancer cell line AsPC-1 (G12D mutation Kras); assay: AsPC-1 cell growth inhibition (AsPC-1 CGI); assay type: cell-based; settings: read-out: AsPC-1 cell growth inhibition, 50% growth inhibitory concentration (IC50 value); 96 hours, CellTiter-Glo, values classified in ranges
Procedure: Test compounds were serially dilated with dimethyl sulfoxide, and 200 nL was then dispensed to a U-bottom 96-well plate using Labcyte Echo. […] The cell suspension was dispensed to a. plate containing a test compound at 100 μL per well and incubated at 37° C. in a 5% carbon dioxide gas incubator. 96 hours later, 80 μL of CellTiter-Glo (Promega) was added to each well and fluorescence was measured.

| SMILES | IC50 [1] [nM] | IC50 [2] [nM] |
| --- | --- | --- |
| CC[C@H](C)[C@@H]1NC(=O)[C@H](C)N(C)C(=O)C[C@@H](C(=O)N2CCCCC2)N(C)C(=O)[C@H](C(C)C)N(C)C(=O)C2(CCCC2)NC(=O)[C@@H]2C[C@@H](N3CCC(F)(F)CC3)CN2C(=O)[C@H](CCc2ccc(C(F)(F)F)c(Cl)c2)NC(=O)CN(C)C(=O)[C@H](CC2CCCCC2)N(C)C(=O)CN(C)C(=O)CN(C)C1=O [Compound 914] ([NMeA]I[Sar][Sar][NMeCha][Sar][hPhe(3-Cl-4-CF3)][X19][Ac5c][NMeV][NMeD]-Piperidide; lactam N-11) | 1.1 | > 500 |
| C=CCOC(=O)NCCCC[C@@H]1NC(=O)[C@H](CCc2ccc(C(F)(F)F)cc2)NC(=O)CN(C)C(=O)[C@H](Cc2ccc(Cl)cc2)N(C)C(=O)CN(C)C(=O)CN(C)C(=O)[C@H]([C@@H](C)CC)NC(=O)[C@H](CC(C)C)N(C)C(=O)C[C@@H](C)N(C)C(=O)[C@H](CC(C)C)NC(=O)C(C)(C)N(C)C1=O [Compound 12] (cyclo(I[Sar][Sar][NMePhe(4-Cl)][Sar][hPhe(4-CF3)]K(Alloc)[NMeAib]L[NMedβ3hAla][NMeL])) | 240 | > 500 |
| CCCOC[C@H]1C(=O)N(C)CC(=O)N[C@@H](CCc2ccc(C(F)(F)F)c(F)c2)C(=O)N2CCC[C@H]2C(=O)NC2(CCCC2)C(=O)N(C)[C@@H]([C@@H](C)CC)C(=O)N(C)[C@H](C(=O)N(C)C)CC(=O)N(C)[C@@H](CC(C)C)C(=O)N[C@@H]([C@@H](C)CC)C(=O)N(C)[C@@H](C)C(=O)N2CC[C@H]2C(=O)N1C [Compound 316] ([NMeL]I[NMeA][Aze][NMeS](Propyl)[Sar][hPhe(3-F,4-CF3)]P[Ac5c][NMeI][NMeD]-NMe2; lactam N-11) | 3.3 | ≤ 20 |
| CC[C@H](C)[C@@H]1NC(=O)[C@H](CC(C)C)N(C)C(=O)C[C@@H](C(=O)N2CCCCC2)N(C)C(=O)[C@H](CC)N(C)C(=O)C2(CCCC2)NC(=O)[C@@H]2CCCN2C(=O)[C@H](CCc2ccc(C(F)(F)F)c(Cl)c2)NC(=O)CN(C)C(=O)[C@H](CC2CCCCC2)N(C)C(=O)[C@@H]2CCN2C(=O)[C@H](C)N(C)C1=O [Compound 1678] ([NMeL]I[NMeA][Aze][NMeCha][Sar][hPhe(3-Cl-4-CF3)]P[Ac5c][NMeAbu][NMeD]-Piperidide; lactam N-11) | 26 | > 500 |
| CC[C@H](C)[C@@H]1NC(=O)[C@H](CC(C)C)N(C)C(=O)C[C@@H](C(=O)N2CCCCC2)N(C)C(=O)[C@H](C2CCCC2)N(C)C(=O)C2(CCCC2)NC(=O)[C@@H]2CCCN2C(=O)[C@H](CCc2ccc(C(F)(F)F)c(Cl)c2)NC(=O)CN(C)C(=O)[C@H](COC2CCC2)N(C)C(=O)[C@@H]2CCN2C(=O)[C@H](C)N(C)C1=O [Compound 835] ([NMeL]I[NMeA][Aze][NMeS](Cyclobutyl)[Sar][hPhe(3-Cl-4-CF3)]P[Ac5c][NMeGly(cPent)][NMeD]-Piperidide; lactam N-11) | 0.54 | ≤ 20 |
| CC[C@H](C)[C@@H]1NC(=O)[C@H](CC(C)C)N(C)C(=O)C[C@@H](C(=O)N2CCCCC2)N(C)C(=O)[C@H](C(C)C)N(C)C(=O)C2(CCCC2)NC(=O)[C@H](CC(=O)N2CCC(F)(F)CC2)N(C)C(=O)[C@H](CCc2ccc(Cl)cc2)NC(=O)CN(C)C(=O)[C@H](CC2CCCCC2)N(C)C(=O)CN(C)C(=O)CN(C)C1=O [Compound 177] ([NMeL]I[Sar][Sar][NMeCha][Sar][hPhe(4-Cl)][NMeD](N(CH2CH2)2CF2)[Ac5c][NMeV][NMeD]-Piperidide; lactam N-11) | 45 | > 500 |
| CC[C@H](C)[C@@H]1NC(=O)[C@H]([C@@H](C)O)N(C)C(=O)C[C@@H](C(=O)N2CCCCC2)N(C)C(=O)[C@H](C(C)C)N(C)C(=O)C2(CCCC2)NC(=O)[C@@H]2CCCN2C(=O)[C@H](CCc2ccc(C(F)(F)F)c(Cl)c2)NC(=O)CN(C)C(=O)[C@H](CC2CCCCC2)N(C)C(=O)[C@@H]2CCN2C(=O)[C@H](C)N(C)C1=O [Compound 91] ([NMeT]I[NMeA][Aze][NMeCha][Sar][hPhe(3-Cl-4-CF3)]P[Ac5c][NMeV][NMeD]-Piperidide; lactam N-11) | 1.5 | > 500 |
| CC[C@H](C)[C@@H]1NC(=O)[C@H](CC(C)C)N(C)C(=O)C[C@@H](C(=O)N2CCCCC2)N(C)C(=O)[C@H](C(C)C)N(C)C(=O)C2(CCCC2)NC(=O)[C@@H]2CCCN2C(=O)[C@H](CCc2ccc(C(F)(F)F)c(Cl)c2)NC(=O)CN(C)C(=O)[C@H](CC2CCCCC2)N(C)C(=O)[C@@H]2CCN2C(=O)[C@H](C)N(CC)C1=O [Compound 443] ([NMeL]I[NEtAla][Aze][NMeCha][Sar][hPhe(3-Cl-4-CF3)]P[Ac5c][NMeV][NMeD]-Piperidide; lactam N-11) | 30 | > 500 |

Reference: patent publication US20240148821A1, “PHARMACEUTICAL USE OF CYCLIC PEPTIDE COMPOUND” (CHUGAI SEIYAKU KABUSHIKI KAISHA, priority 2021, published 2024)
